The values that follow come from patent publication US20120238532A1, “TREATMENT OF HUMAN OSTEOSARCOMA” (CEDARS-SINAI MEDICAL CENTER, priority 2009, published 2012).

What all share (assay type): cell-based, human
One assay concerns MG-63 cells. As to the kind of experiment: Annexin V-FITC apoptosis assay, MG-63. As to conditions: at ED50, 72 hours of exposure. How it is done: Cells were harvested and fixed with 70% ethanol at regular time intervals. Fixed cells were stained with propidium iodide (PI) for flow cytometry analysis using BD FACScan (BD Biosciences, San Jose, Calif.). Distribution of cell cycle was analyzed by ModFit LT V2.0 software (Verity Software House, Topsham, Me.). […] After 24, 48, and 72 hours of exposure, cells were harvested and stained with PI and fluorescein isothiocyanate (FITC) using Annexin V-FITC apoptosis detection kit (BD Biosciences) according to the manufacturer's protocol. Cells were subjected to flow cytometry analysis within one hour of staining.

Assay [1] has as its system cyclin A and cyclin-dependent kinase inhibitor 1 (p21^WAF1). As to the kind of experiment: Western blotting, cyclin A and p21^WAF1. As to conditions: MG-63 and SAOS-2 cells. How it is done:
(§1) Changes in protein level by CuB were checked by Western blotting. […] After 2, 9, and 20 hours of exposure, cells were harvested and immediately lysed with RIPA buffer (Millipore—Upstate, Temecula, Calif.) supplemented with protease inhibitor cocktail (Roche, San Francisco, Calif.), 0.5 mM PMSF (Roche), and 50 mM NaF (Sigma). After 20 minutes of incubation on ice, protein concentrations were measured by Bradford assay with Bio Rad protein assay solution (Bio-Rad, Hercules, Calif.) and samples were adjusted to the same protein concentration. Samples were mixed with 2× Laemmli sample buffer (Bio-Rad) with 5% β-mercaptoethanol (Sigma) and incubated at 95° C. for 10 min to denature the protein. After brief incubation on ice, proteins were separated by SDS-PAGE, transferred to nitrocellulose membrane (Sigma), and blotted with antibodies from either Cell Signaling Technology (Danvers, Mass.) or Santa Cruz Biotechnology (Santa Cruz, Calif.). Target proteins were visualized by Supersignal West Dura Substrate (Thermo-Pierce, Rockford, Ill.). GAPDH protein was used as a loading control.

Assay [2] has as its system poly ADP-ribose polymerase (PARP). As to the kind of experiment: Western blotting, PARP cleavage. The following applies: MG-63 and SAOS-2 cells. The procedure:
as §1
Background: Immunoblotting shows a protein as a band on a membrane.

In the assay with MG-63 cells, `CC(=O)OC(C)(C)/C=C/C(=O)[C@](C)(O)[C@H]1[C@H](O)C[C@@]2(C)[C@@H]3CC=C4[C@H](C[C@H](O)C(=O)C4(C)C)[C@]3(C)C(=O)C[C@]12C` [CuB, cucurbitacin B] registered an apoptotic cells of 44%. In addition, in assay [1], the “protein levels of cyclin A and p21^WAF1” value was “increased the protein levels of cyclin A and cyclin-dependent kinase inhibitor 1 (p21^WAF1) in both cells”. In addition, the PARP cleavage entry in assay [2] is recorded as “showed cleavage of the precursor molecules in both cells”.
